Assay results published in patent publication US12660819B2, “Herbicidal derivatives” (SYNGENTA CROP PROTECTION AG, priority 2020, dated 2026).

What was measured:
Format in all cases: in vivo
[1] = system: Abutilon theophrasti (ABUTH); assay: Pre-emergence Test (glasshouse, percentage damage to the plant); conditions: 1000 g/ha unless otherwise stated; for percentage damage to the plant, ABUTH: five-point scale
[2] = system: Echinochloa crus-galli (ECHCG); assay: as above; conditions: 1000 g/ha unless otherwise stated; for percentage damage to the plant, ECHCG: five-point scale
[3] = system: Echinochloa crus-galli (ECHCG); assay: Post-emergence Test (glasshouse, percentage damage to the plant); conditions: 1000 g/ha unless otherwise stated, evaluated after 13 days; for Post-emergence Test ECHCG, percentage damage to the plant (five-point scale): post-emergence spray
Method: (§1) Seeds of a variety of test species are sown in standard soil in pots (Amaranthus retoflexus (AMARE), Solanum nigrum (SOLNI), Setaria faberi (SETFA), Lolium perenne (LOLPE), Echinochloa crus-galli (ECHCG), Ipomoea hederacea (IPOHE), Abutilon theophrasti (ABUTH), Zea mays (ZEAMX), Amaranthus palmeri (AMAPA). After 8 days cultivation under controlled conditions in a glasshouse (at 24° C./16° C., day/night; 14 hours light; 65% humidity), the plants are sprayed with an aqueous spray solution derived from the formulation of the technical active ingredient in acetone/water (50:50) solution containing 0.5% Tween 20 (polyoxyethelyene sorbitan monolaurate, CAS RN 9005-64-5). Compounds are applied at 1000 g/ha unless otherwise stated. The test plants are then grown in a glasshouse under controlled conditions in a glasshouse (at 24° C./16° C., day/night; 14 hours light; 65% humidity) and watered twice daily. After 13 days the test is evaluated for the percentage damage caused to the plant. The biological activities are shown in the following table on a five-point scale (5=81-100%; 4=61-80%; 3=41-60%; 2=21-40%; 1=0-20%).

Zea mays (ZEAMX) [4] = assay: as above; conditions: 1000 g/ha unless otherwise stated, evaluated after 13 days; for Post-emergence Test ZEAMX, percentage damage to the plant (five-point scale): post-emergence spray
Method: as §1

[5] = system: Ipomoea hederacea (IPOHE); assay: as above; conditions: 1000 g/ha unless otherwise stated, evaluated after 13 days; for Post-emergence Test IPOHE, percentage damage to the plant (five-point scale): post-emergence spray
Method: as §1

Setaria faberi (SETFA) [6] = assay: as above; conditions: 1000 g/ha unless otherwise stated, evaluated after 13 days; for Post-emergence Test SETFA, percentage damage to the plant (five-point scale): post-emergence spray
Method: as §1

[7] = system: Amaranthus retoflexus (AMARE); assay: as above; conditions: 1000 g/ha unless otherwise stated, evaluated after 13 days; for Post-emergence Test AMARE, percentage damage to the plant (five-point scale): post-emergence spray
Method: as §1

[8] = system: Amaranthus retoflexus (AMARE); assay: Pre-emergence Test (glasshouse, percentage damage to the plant); conditions: 1000 g/ha unless otherwise stated; for percentage damage to the plant, AMARE: five-point scale
Setaria faberi (SETFA) [9] = assay: as above; conditions: 1000 g/ha unless otherwise stated; for percentage damage to the plant, SETFA: five-point scale
Zea mays (ZEAMX) [10] = assay: as above; conditions: 1000 g/ha unless otherwise stated; for percentage damage to the plant, ZEAMX: five-point scale
[11] = system: Ipomoea hederacea (IPOHE); assay: as above; conditions: 1000 g/ha unless otherwise stated; for percentage damage to the plant, IPOHE: five-point scale

## CCn1c(C)c(-c2ccc(C#N)cc2)c(=O)c(C(=O)O)c1-c1ccc(Cl)cc1 [Compound 198, 2-(4-chlorophenyl)-5-(4-cyanophenyl)-1-ethyl-6-methyl-4-oxo-pyridine-3-carboxylic acid]
[1]; Abutilon theophrasti
  percentage damage to the plant, ABUTH (five-point scale): 0
[2]; Echinochloa crus-galli
  percentage damage to the plant, ECHCG (five-point scale): 0
[3]; post-emergence
  ECHCG, percentage damage caused to the plant (five-point scale): 1 (1=0-20%)
Zea mays (ZEAMX) [4]; post-emergence
  ZEAMX, percentage damage caused to the plant (five-point scale): 1 (1=0-20%)
[5]; post-emergence
  IPOHE, percentage damage caused to the plant (five-point scale): 1 (1=0-20%)
Setaria faberi (SETFA) [6]; post-emergence
  SETFA, percentage damage caused to the plant (five-point scale): 2 (2=21-40%)
[7]; post-emergence
  AMARE, percentage damage caused to the plant (five-point scale): 2 (2=21-40%)
[8]; Amaranthus retoflexus
  percentage damage to the plant, AMARE (five-point scale): 0
Setaria faberi (SETFA) [9]; Setaria faberi
  percentage damage to the plant, SETFA (five-point scale): 0
Zea mays (ZEAMX) [10]; Zea mays
  percentage damage to the plant, ZEAMX (five-point scale): 0
[11]; Ipomoea hederacea
  percentage damage to the plant, IPOHE (five-point scale): 1 (1=0-20%)

## CCn1c(C)c(-c2cc(F)ccc2Cl)c(=O)c(C(=O)O)c1-c1ccc(Cl)cc1 [Compound 175, 5-(2-chloro-5-fluoro-phenyl)-2-(4-chlorophenyl)-1-ethyl-6-methyl-4-oxo-pyridine-3-carboxylic acid]
[1]
  percentage damage to the plant, ABUTH: 0
[2]
  percentage damage to the plant, ECHCG: 1 (1=0-20%)
[3]
  Post-emergence Test ECHCG, percentage damage to the plant (five-point scale): 2 (2=21-40%)
Zea mays (ZEAMX) [4]
  Post-emergence Test ZEAMX, percentage damage to the plant (five-point scale): 1 (1=0-20%)
[5]
  Post-emergence Test IPOHE, percentage damage to the plant (five-point scale): 3 (3=41-60%)
Setaria faberi (SETFA) [6]
  Post-emergence Test SETFA, percentage damage to the plant (five-point scale): 3 (3=41-60%)
[7]
  Post-emergence Test AMARE, percentage damage to the plant (five-point scale): 1 (1=0-20%)
[8]
  percentage damage to the plant, AMARE: 0
Setaria faberi (SETFA) [9]
  percentage damage to the plant, SETFA: 2 (2=21-40%)
Zea mays (ZEAMX) [10]
  percentage damage to the plant, ZEAMX: 1 (1=0-20%)
[11]
  percentage damage to the plant, IPOHE: 3 (3=41-60%)

## CCn1c(C)c(-c2cc(C)c(F)c(C)c2)c(=O)c(C(=O)O)c1-c1ccc(Cl)cc1 [Compound 173, 2-(4-chlorophenyl)-1-ethyl-5-(4-fluoro-3,5-dimethyl-phenyl)-6-methyl-4-oxo-pyridine-3-carboxylic acid]
[1]
  percentage damage to the plant, ABUTH: 0
[2]
  percentage damage to the plant, ECHCG: 0
[3]
  Post-emergence Test ECHCG, percentage damage to the plant (five-point scale): 1 (1=0-20%)
Zea mays (ZEAMX) [4]
  Post-emergence Test ZEAMX, percentage damage to the plant (five-point scale): 2 (2=21-40%)
[5]
  Post-emergence Test IPOHE, percentage damage to the plant (five-point scale): 3 (3=41-60%)
Setaria faberi (SETFA) [6]
  Post-emergence Test SETFA, percentage damage to the plant (five-point scale): 2 (2=21-40%)
[7]
  Post-emergence Test AMARE, percentage damage to the plant (five-point scale): 3 (3=41-60%)
[8]
  percentage damage to the plant, AMARE: 0
Setaria faberi (SETFA) [9]
  percentage damage to the plant, SETFA: 0
Zea mays (ZEAMX) [10]
  percentage damage to the plant, ZEAMX: 0
[11]
  percentage damage to the plant, IPOHE: 0

## CCn1c(C)c(-c2ccc(C(F)(F)F)c(Cl)c2)c(=O)c(C(=O)O)c1-c1ccc(Cl)cc1 [Compound 171, 2-(4-chlorophenyl)-5-[3-chloro-4-(trifluoromethyl)phenyl]-1-ethyl-6-methyl-4-oxo-pyridine-3-carboxylic acid]
[1]
  percentage damage to the plant, ABUTH: 0
[2]
  percentage damage to the plant, ECHCG: 1 (1=0-20%)
Zea mays (ZEAMX) [4]
  Post-emergence Test ZEAMX, percentage damage to the plant (five-point scale): 2 (2=21-40%)
[5]
  Post-emergence Test IPOHE, percentage damage to the plant (five-point scale): 4 (4=61-80%)
Setaria faberi (SETFA) [6]
  Post-emergence Test SETFA, percentage damage to the plant (five-point scale): 3 (3=41-60%)
[7]
  Post-emergence Test AMARE, percentage damage to the plant (five-point scale): 3 (3=41-60%)
[8]
  percentage damage to the plant, AMARE: 0
Setaria faberi (SETFA) [9]
  percentage damage to the plant, SETFA: 0
Zea mays (ZEAMX) [10]
  percentage damage to the plant, ZEAMX: 0
[11]
  percentage damage to the plant, IPOHE: 1 (1=0-20%)

## CCOc1cc(-c2c(C)n(CC)c(-c3ccc(Cl)cc3)c(C(=O)O)c2=O)ccc1C(F)(F)F [Compound 176, 2-(4-chlorophenyl)-5-[3-ethoxy-4-(trifluoromethyl)phenyl]-1-ethyl-6-methyl-4-oxo-pyridine-3-carboxylic acid]
[1]
  percentage damage to the plant, ABUTH: 0
[3]
  Post-emergence Test ECHCG, percentage damage to the plant (five-point scale): 1 (1=0-20%)
Zea mays (ZEAMX) [4]
  Post-emergence Test ZEAMX, percentage damage to the plant (five-point scale): 1 (1=0-20%)
[5]
  Post-emergence Test IPOHE, percentage damage to the plant (five-point scale): 1 (1=0-20%)
Setaria faberi (SETFA) [6]
  Post-emergence Test SETFA, percentage damage to the plant (five-point scale): 1 (1=0-20%)
[7]
  Post-emergence Test AMARE, percentage damage to the plant (five-point scale): 2 (2=21-40%)
[8]
  percentage damage to the plant, AMARE: 0
Setaria faberi (SETFA) [9]
  percentage damage to the plant, SETFA: 0
Zea mays (ZEAMX) [10]
  percentage damage to the plant, ZEAMX: 0
[11]
  percentage damage to the plant, IPOHE: 0

## CCn1c(C)c(-c2cccc(Cl)c2Cl)c(=O)c(C(=O)O)c1-c1ccc(Cl)cc1 [Compound 172, 2-(4-chlorophenyl)-5-(2,3-dichlorophenyl)-1-ethyl-6-methyl-4-oxo-pyridine-3-carboxylic acid]
[1]
  percentage damage to the plant, ABUTH: 1 (1=0-20%)
[2]
  percentage damage to the plant, ECHCG: 3 (3=41-60%)
Zea mays (ZEAMX) [4]
  Post-emergence Test ZEAMX, percentage damage to the plant (five-point scale): 2 (2=21-40%)
[5]
  Post-emergence Test IPOHE, percentage damage to the plant (five-point scale): 4 (4=61-80%)
Setaria faberi (SETFA) [6]
  Post-emergence Test SETFA, percentage damage to the plant (five-point scale): 4 (4=61-80%)
[7]
  Post-emergence Test AMARE, percentage damage to the plant (five-point scale): 2 (2=21-40%)
[8]
  percentage damage to the plant, AMARE: 1 (1=0-20%)
Setaria faberi (SETFA) [9]
  percentage damage to the plant, SETFA: 3 (3=41-60%)
Zea mays (ZEAMX) [10]
  percentage damage to the plant, ZEAMX: 0
[11]
  percentage damage to the plant, IPOHE: 1 (1=0-20%)

## CCn1c(C)c(-c2cc(OC)ccc2F)c(=O)c(C(=O)O)c1-c1ccc(Cl)cc1 [Compound 189, 2-(4-chlorophenyl)-1-ethyl-5-(2-fluoro-5-methoxy-phenyl)-6-methyl-4-oxo-pyridine-3-carboxylic acid]
[1]
  percentage damage to the plant, ABUTH: 3 (3=41-60%)
[2]
  percentage damage to the plant, ECHCG: 2 (2=21-40%)
Zea mays (ZEAMX) [4]
  Post-emergence Test ZEAMX, percentage damage to the plant (five-point scale): 1 (1=0-20%)
[5]
  Post-emergence Test IPOHE, percentage damage to the plant (five-point scale): 1 (1=0-20%)
Setaria faberi (SETFA) [6]
  Post-emergence Test SETFA, percentage damage to the plant (five-point scale): 2 (2=21-40%)
[7]
  Post-emergence Test AMARE, percentage damage to the plant (five-point scale): 2 (2=21-40%)
[8]
  percentage damage to the plant, AMARE: 1 (1=0-20%)
Setaria faberi (SETFA) [9]
  percentage damage to the plant, SETFA: 2 (2=21-40%)
Zea mays (ZEAMX) [10]
  percentage damage to the plant, ZEAMX: 0
[11]
  percentage damage to the plant, IPOHE: 1 (1=0-20%)

## CCn1c(-c2ccc(Cl)c(Cl)c2)c(C(=O)OC)c(=O)c(-c2ccc(Cl)cc2)c1C(F)(F)F [Compound 169, methyl 5-(4-chlorophenyl)-2-(3,4-dichlorophenyl)-1-ethyl-4-oxo-6-(trifluoromethyl) pyridine-3-carboxylate]
[1]
  percentage damage to the plant, ABUTH: 0
[2]
  percentage damage to the plant, ECHCG: 0
Zea mays (ZEAMX) [4]
  Post-emergence Test ZEAMX, percentage damage to the plant (five-point scale): 1 (1=0-20%)
[5]
  Post-emergence Test IPOHE, percentage damage to the plant (five-point scale): 0
Setaria faberi (SETFA) [6]
  Post-emergence Test SETFA, percentage damage to the plant (five-point scale): 0
[7]
  Post-emergence Test AMARE, percentage damage to the plant (five-point scale): 1 (1=0-20%)
[8]
  percentage damage to the plant, AMARE: 0
Setaria faberi (SETFA) [9]
  percentage damage to the plant, SETFA: 0
Zea mays (ZEAMX) [10]
  percentage damage to the plant, ZEAMX: 0
[11]
  percentage damage to the plant, IPOHE: 0

## CCn1c(C)c(-c2cc(Cl)ccc2Cl)c(=O)c(C(=O)O)c1-c1ccc(Cl)cc1 [Compound 185, 2-(4-chlorophenyl)-5-(2,5-dichlorophenyl)-1-ethyl-6-methyl-4-oxo-pyridine-3-carboxylic acid]
[1]
  percentage damage to the plant, ABUTH: 0
[2]
  percentage damage to the plant, ECHCG: 0
Zea mays (ZEAMX) [4]
  Post-emergence Test ZEAMX, percentage damage to the plant (five-point scale): 1 (1=0-20%)
[5]
  Post-emergence Test IPOHE, percentage damage to the plant (five-point scale): 2 (2=21-40%)
Setaria faberi (SETFA) [6]
  Post-emergence Test SETFA, percentage damage to the plant (five-point scale): 3 (3=41-60%)
[7]
  Post-emergence Test AMARE, percentage damage to the plant (five-point scale): 3 (3=41-60%)
[8]
  percentage damage to the plant, AMARE: 0
Setaria faberi (SETFA) [9]
  percentage damage to the plant, SETFA: 0
Zea mays (ZEAMX) [10]
  percentage damage to the plant, ZEAMX: 0
[11]
  percentage damage to the plant, IPOHE: 0
